Laboratory results: US20220073883A1, “COMPOSITIONS AND METHODS FOR GENERATION OF HEART FIELD-SPECIFIC PROGENITOR CELLS” (The Johns Hopkins University, priority 2018, published 2022)
Entries after “also recorded” stand apart in the source; their conditions may differ.

B1: Noggin: blocks Bmps from binding their receptors (protein, UniProt Q13253 28-232, looked up)
Noggin: QHYLHIRPAPSDNLPLVDLIEHPDPIFDPKEKDLNETLLRSLLGGHYDPGFMATSPPEDRPGGGGGAAGGAEDLAELDQLLRQRPSGAMPSEIKGLEFSEGLAQGKKQRLSKKLRRKLQMWLWSQTFCPVLYAWNDLGSRFWPRYVKVGSCFSKRSCSVPEGMVCKPSKSVHLTVLRWRCQRRGGQRCGWIPIQYPIISECKCSC
B2: Wnt11: Wnt protein (noncanonical) (protein, UniProt O96014 25-354, looked up)
Protein Wnt-11: IKWLALSKTPSALALNQTQHCKQLEGLVSAQVQLCRSNLELMHTVVHAAREVMKACRRAFADMRWNCSSIELAPNYLLDLERGTRESAFVYALSAAAISHAIARACTSGDLPGCSCGPVPGEPPGPGNRWGGCADNLSYGLLMGAKFSDAPMKVKKTGSQANKLMRLHNSEVGRQALRASLEMKCKCHGVSGSCSIRTCWKGLQELQDVAADLKTRYLSATKVVHRPMGTRKHLVPKDLDIRPVKDSELVYLQSSPDFCMKNEKVGSHGTQDRQCNKTSNGSDSCDLMCCGRGYNPYTDRVVERCHCKYHWCCYVTCRRCERTVERYVCK
B3: Wnt5A: Wnt protein (noncanonical) (protein, UniProt P41221 62-380, looked up)
Protein Wnt-5a: IIGAQPLCSQLAGLSQGQKKLCHLYQDHMQYIGEGAKTGIKECQYQFRHRRWNCSTVDNTSVFGRVMQIGSRETAFTYAVSAAGVVNAMSRACREGELSTCGCSRAARPKDLPRDWLWGGCGDNIDYGYRFAKEFVDARERERIHAKGSYESARILMNLHNNEAGRRTVYNLADVACKCHGVSGSCSLKTCWLQLADFRKVGDALKEKYDSAAAMRLNSRGKLVQVNSRFNSPTTQDLVYIDPSPDYCVRNESTGSLGTQGRLCNKTSEGMDGCELMCCGRGYDQFKTVQTERCHCKFHWCCYVKCKKCTEIVDQFVCK
B4: Wnt3A: Wnt protein (canonical) (protein, UniProt P56704 19-352, looked up)
Protein Wnt-3a: SYPIWWSLAVGPQYSSLGSQPILCASIPGLVPKQLRFCRNYVEIMPSVAEGIKIGIQECQHQFRGRRWNCTTVHDSLAIFGPVLDKATRESAFVHAIASAGVAFAVTRSCAEGTAAICGCSSRHQGSPGKGWKWGGCSEDIEFGGMVSREFADARENRPDARSAMNRHNNEAGRQAIASHMHLKCKCHGLSGSCEVKTCWWSQPDFRAIGDFLKDKYDSASEMVVEKHRESRGWVETLRPRYTYFKVPTERDLVYYEASPNFCEPNPETGSFGTRDRTCNVSSHGIDGCDLLCCGRGHNARAERRREKCRCVFHWCCYVSCQECTRVYDVHTCK

Experiments:
Type in all cases: cell-based, mouse
canonical Wnt activity = experiment: Topflash luciferase assay; details: in combination with Bmp4 (1.25 ng/ml); 88 h of differentiation
Procedure: To test this, canonical Wnt activity was measured with its readout Topflash.
For Tbx1 and Tbx5 knockdown experiments, Tbx1 and Tbx5 ON-TARGETplus SMARTpool siRNA or scrambled siRNA (Dharmacon/Thermo Fisher Scientic) was used at 5 nM for cell transfection. Cells were transfected with Lipofectamine LTX (Life Technologies) in single-cell suspensions. For TOP-flash luciferase assays, mESCs were transfected with Topflash constructs and Renilla constructs and analyzed as previously described 5.

[1] = tested on: ESC-derived cardiac spheroids; experiment: qPCR of FHF (tbx5, hcn4) and SHF (tbx1, fgf10) markers in treated spheroids; details: in combination with Bmp4 (1.25 ng/ml), Wnts 100 ng/ml, dorsomorphin, K2288, DMH1 100 nM; for expression of SHF markers (tbx1, fgf10): IWP-2 0.5 μM
Procedure: To investigate the crosstalk between Bmp and Wnt signals, the spheroids were treated with Bmp4 and Wnts in combinations and analyzed expression levels of FHF (tbx5, hcn4) and SHF (tbx1, fgf10) markers.
(§1) Mouse ESCs and human iPSCs were maintained and differentiated as previously described^5, 43, 68 Briefly, mESCs were maintained on gelatin-coated dishes in maintenance medium (Glasgow minimum essential medium supplemented with 10% fetal bovine serum and […] Chir99021 and 1 μM PD98059 or 1000 U/ml ESGRO (Millipore, Billerica, Mass.), Glutamax, sodium pyruvate, MEM non-essential amino acids (Thermo Fisher Scientific). For spheroid formation and differentiation, mouse ESCs were plated in IMDM/Ham's F12 (Cellgro) (3:1) supplemented with N2, B27, penicillin/streptomycin, 2 mM GlutaMAX, 0.05% BSA, 5 ng/ml L-ascorbic acid (Sigma-Aldrich) and α-monothioglycerol (MTG; Sigma-Aldrich) at a final density of 100,000 cells/ml to allow spheroid formation. After 48 h spheroids were collected and transferred to ultra-low attachment plastic surface and induced for 40 hours with Activin A, Bmp4, Wnt3A, Wnt5A, Wnt11 (R&D Systems) alone or in combination. Human iPSCs were maintained in Geltrex-coated T25 flasks using Essential 8 medium. For spheroid formation and differentiation, hiPSCs were plated in RPMI plus B27 minus insulin with Bmp4 and CHIR99021 and incubated for 48 h. After 48 h media was changed to RPMI plus B27 minus insulin. The hiPSC line used in this study was developed by Dr. Linzhao Cheng, the Johns Hopkins University, and had was generated from a de-identified patient using an approved IRB protocol.
RNA isolation was performed using either RNeasy Micro Kit (Cat #74004, Qiagen) or […]® PicoPure® RNA Isolation Kit following the manufacturer's instructions, and cDNA was generated using the high-capacity cDNA reverse transcription kit (Applied Biosystems). qPCR reactions were performed using the Taqman (Applied Biosystems) or Sybr Select qPCR mix (Thermo Fisher) with indicated primers. Gene expression levels were normalized to Gapdh. For the clonal cell-fate analysis, single Isl1-Cre RFP+, Cxcr4− and Isl1-Cre RFP^+, Cxcr4^+ cells were sorted at day 5.5 into 384-well plates and allowed to grow and differentiate for 7 days. […] RNA was isolated from 24 wells with colonies from Cxcr4− and Cxcr4+ sorted cells, respectively. Ct values<30 were considered positive. All samples were also analyzed for gapdh to exclude false-positive results.

[2] = tested on: ESC-derived cardiac spheroids (Hcn4-GFP; Tbx1-Cre; Ai9); experiment: heart field specification: Hcn4-GFP+ and Tbx1-Cre, RFP+ CPCs in cardiac spheroids by FACS at day 5.5; details: for Bmp4-mediated induction of RFP+ cells (SHF) / Bmp4-mediated induction of GFP+ cells (FHF): in combination with Bmp4 (1.25 ng/ml), Noggin 100 ng/ml, dorsomorphin, K2288, DMH1 100 nM; for Bmp4-mediated induction of RFP+ cells (SHF): IWP-2 0.5 μM
Description: Next, an embryonic stem cell (ESC) line (ESCHcn4-GFP; Tbx1-Cre Ai9) was established from the mice to determine if heart field specification can be recapitulated in a PSC system. It was hypothesized that a 3D multicellular system would better resemble heart field development in vivo, as early development is a highly dynamic process that involves tissue-tissue interactions between multiple cell types. Since CPCs are specified during mid-late gastrulation 7, 8, multicellular 3D spheroids were generated with the PSCs and treated them with various concentrations of Activin A and Bmp4 to determine whether induction of the early mesoderm influences heart field specification (FIGS. 1C and 1D).
IPA utilizes an input gene list and a curated database of literature-derived pathways to infer which canonical pathways are most significant to the input data set. The analysis was focused on pathways related to ‘organism growth and development’. […] The effect of Bmp signals was evaluated during heart field specification. In order to minimize the possibility of influencing heart field cells after induction, all of the data were analyzed within 12 hs after the appearance of GFP^+/RFP^+ cells.
as §1
Mouse embryos (E7.75) were dissected using forceps under a stereomicroscope (Zeiss) and regions of interest were dissociated and harvested using TrypLE. Embryoid bodies (EBs) and cells were dissociated and harvested using TrypLE. Single-cells were analyzed for RFP/GFP expression or sorted using a SH800 Cell sorter (Sony Biotechnologies). Live cells were analyzed for RFP and GFP expression and stained with antibodies targeting for the presence of appropriate markers. […] Data was analyzed using FlowJo software.

[3] = increasing levels of the factor, day 5.5

Molecule | topflash / Wnt activity (canonical Wnt activity) | expression of SHF markers (tbx1, fgf10) [1] | expression of FHF markers (tbx5, hcn4) [1] | Bmp4-mediated induction of RFP+ cells (SHF) [2] | Bmp4-mediated induction of GFP+ cells (FHF) [2] | induction of GFP+ cells (FHF) [2, 3] | induction of RFP+ cells (SHF) [2, 3]
COc1cc(-c2cc(-c3cccc(O)c3)cnc2N)cc(OC)c1OC [K2288, reference compound] | without significantly affecting | without significantly affecting | suppressed | without significantly affecting | suppressed |  | 
CC(C)Oc1ccc(-c2cnc3c(-c4ccnc5ccccc45)cnn3c2)cc1 [DMH1, reference compound] | without significantly affecting | without significantly affecting | suppressed | without significantly affecting | suppressed |  | 
c1cc(-c2cnn3cc(-c4ccc(OCCN5CCCCC5)cc4)cnc23)ccn1 [dorsomorphin, reference compound] | no effect |  |  |  |  |  | 
Cc1ccc2nc(NC(=O)CSc3nc4c(c(=O)n3-c3ccccc3)SCC4)sc2c1 [IWP-2, reference compound] |  | suppressed |  | abolished |  |  | 
B1 | markedly reduced; also recorded: inhibition |  |  | abolished | abolished |  | 
B2 |  | overall reduction | overall reduction |  |  |  | 
B3 |  | overall reduction | overall reduction |  |  |  | 
B4 | further increased | further increase | reduction |  |  | did not affect | increased numbers
